# Measured values reported in patent publication US20140303092A1 (CHIMERIX, INC., priority 2011, published 2014).
# Test: Study HDP-CDV-201: safety and tolerability (adverse events, laboratory abnormalities, discontinuations)
# Format: in vivo, human (adult allogeneic HSCT recipients)
# Experimental: Clinical Studies of HDP-CDV were performed and described in detail in the following Examples. For example, HDP-CDV-201 is a placebo-controlled, dose-escalating trial in HSCT CMV (R+) recipients, evaluating the ability of HDP-CDV to prevent or control CMV infection was carried out. Five cohorts were established in which participants or subjects received either placebo or the HDP-CDV orally, in doses ranging from 40 mg weekly (QW) to 200 mg twice weekly (BIW). Subjects who were post-HSCT were enrolled at the time of engraftment and randomized to HDP-CDV or placebo (3 to 1 ratio) and received blinded therapy until approximately 100 day post-transplantation. HDP-CDV doses were 40 mg QW, 100 mg QW, 200 mg QW, 200 mg BIW and 100 mg BIW. Escalation to the next dose was decided by the data monitoring committee after review of the safety data from the previous Cohort. Subjects who developed CMV disease or CMV infection requiring pre-emptive therapy with local standard of care were discontinued from blinded therapy and followed for 4 weeks. Subjects who completed treatment with blinded therapy were followed for 8 weeks post-therapy.
# Data from Study HDP-CDV-201 also provided characterization of the safety and tolerability profile of HDP-CDV when administered for the prevention or control of CMV infection in high risk (R^+) post-HSCT adult subjects.
# The Safety population (SAFETY) included all randomized subjects who took at least one dose of study treatment. This population was used to summarize safety outcomes based on the treatment actually received, in cases where a subject was treated contrary to the randomization schedule.
# The safety and tolerability profile of HDP-CDV, including subject demographics and Baseline characteristics; the AE profile; and laboratory abnormalities of interest were analyzed in the cohorts followed in this investigation.
# Subjects completing the treatment period received a full course of study medication; those completing the entire study attended visits through 8 weeks of follow up. Subjects who discontinued treatment may have done so for protocol specified reasons (e.g. development of clinically significant CMV infection requiring preemptive treatment with excluded anti-CMV medications) or for other reasons (e.g., withdrawal, adverse events, loss to follow-up). The disposition of subjects in Study HDP-CDV-201 during the double-blind, placebo-controlled treatment period (through Week 11) is listed by dosing Cohort in TABLE 23.
# Adverse events were examined by severity to ensure that all safety signals were identified in this study population. Because of the frequency of events in HSCT recipients, particular attention was given to evaluation of Grade 3 […], 4 (severe), and 5 (fatal) adverse events.
# Only those preferred terms for which at least one Grade 3 or higher event was experienced in any treatment group are listed. Cytomegalovirus-related AEs are excluded from this analysis.
# HDP-CDV is a lipid conjugate of CDV. Because CDV is known to have adverse effects on renal function and bone marrow, decreased GFR and persistent neutropenia were identified as AEs of special interest. Key renal and hematological (TABLE 30) laboratory parameters were measured and listed below by Study HDP-CDV-201 treatment groups. TABLE 30 includes abnormal levels of serum creatinine, neutrophils, platelets, WBCs, and hemoglobin and includes data at Screening and during the treatment period.
# A common metric for unit based dosing of medications is by weight (mg/kg). When the distribution of weights was examined for all subjects participating in the study, the median was 78 kg and the lower 25th percentile weight was approximately 65 kg, which translates to a cut-off of ˜3 mg/kg for a 200 mg total weekly dose. Based upon this approach, a cut-off of 3 mg/kg was used to assess the frequency of diarrhea and associated GI AEs reported for the subjects in Cohorts 3 or 4a (TABLE 40).
# [1] = Cohort 4A, 100 mg BIW, through Week 11
structure (smiles),measurement,setting,value
CCCCCCCCCCCCCCCCOCCCOP(=O)(O)COC(CO)Cn1ccc(N)nc1=O (stereo not shown) [HDP-CDV],TEAE Cytomegalovirus viremia,"Cohort 4A, 100 mg BIW, N = 50",6 (12.0%) n (%)
same,TEAE Decreased appetite,"Cohort 4A, 100 mg BIW, N = 50",9 (18.0%) n (%)
same,TEAE Diarrhoea,"Cohort 4A, 100 mg BIW, N = 50",26 (52.0%) n (%)
same,TEAE Dysgeusia,"Cohort 4A, 100 mg BIW, N = 50",4 (8.0%) n (%)
same,TEAE Fatigue,"Cohort 4A, 100 mg BIW, N = 50",9 (18.0%) n (%)
same,TEAE GI Reflux Disease,"Cohort 4A, 100 mg BIW, N = 50",0 n (%)
same,TEAE Gamma-glutamyltransferase increased,"Cohort 4A, 100 mg BIW, N = 50",4 (8.0%) n (%)
same,TEAE Generalized oedema,"Cohort 4A, 100 mg BIW, N = 50",1 (2.0%) n (%)
same,TEAE Hyperbilirubinaemia,"Cohort 4A, 100 mg BIW, N = 50",3 (6.0%) n (%)
same,TEAE Hyperglycaemia,"Cohort 4A, 100 mg BIW, N = 50",9 (18.0%) n (%)
same,TEAE Hyperkalemia,"Cohort 4A, 100 mg BIW, N = 50",3 (6.0%) n (%)
same,TEAE Hypocalcaemia,"Cohort 4A, 100 mg BIW, N = 50",2 (4.0%) n (%)
same,TEAE Hypokalaemia,"Cohort 4A, 100 mg BIW, N = 50",8 (16.0%) n (%)
same,TEAE Hyponatraemia,"Cohort 4A, 100 mg BIW, N = 50",1 (2.0%) n (%)
same,TEAE Increased leukocytosis,"Cohort 4A, 100 mg BIW, N = 50",2 (4.0%) n (%)
same,TEAE Insomnia,"Cohort 4A, 100 mg BIW, N = 50",9 (18.0%) n (%)
same,TEAE Liver function test abnormal,"Cohort 4A, 100 mg BIW, N = 50",2 (4.0%) n (%)
same,TEAE Malnutrition,"Cohort 4A, 100 mg BIW, N = 50",1 (2.0%) n (%)
same,TEAE Nausea,"Cohort 4A, 100 mg BIW, N = 50",17 (34.0%) n (%)
same,TEAE Neutropenia,"Cohort 4A, 100 mg BIW, N = 50",10 (20.0%) n (%)
same,TEAE Oedema peripheral,"Cohort 4A, 100 mg BIW, N = 50",8 (16.0%) n (%)
same,TEAE Oral Candidiasis,"Cohort 4A, 100 mg BIW, N = 50",6 (12.0%) n (%)
same,TEAE Pneumonia,"Cohort 4A, 100 mg BIW, N = 50",5 (10.0%) n (%)
same,TEAE Pyrexia,"Cohort 4A, 100 mg BIW, N = 50",10 (20.0%) n (%)
same,TEAE Recurrent flatulence,"Cohort 4A, 100 mg BIW, N = 50",3 (6.0%) n (%)
same,TEAE Renal Failure,"Cohort 4A, 100 mg BIW, N = 50",5 (10.0%) n (%)
same,TEAE Staphylococcal Bacteremia,"Cohort 4A, 100 mg BIW, N = 50",6 (12.0%) n (%)
same,TEAE Thrombocytopenia,"Cohort 4A, 100 mg BIW, N = 50",7 (14.0%) n (%)
same,TEAE Tremor,"Cohort 4A, 100 mg BIW, N = 50",1 (2.0%) n (%)
same,TEAE Vomiting,"Cohort 4A, 100 mg BIW, N = 50",22 (44.0%) n (%)
same,Vomiting leading to study drug withdrawal,"Cohort 4A, 100 mg BIW, N = 50",1 (2.0%)
same,"All AEs, Grade 5 (deaths)","Cohort 4A, 100 mg BIW, N = 50, entire study duration",5 (10.0%)
same,Subjects completed treatment,[1],30 (60.0%) n (%)
same,Subjects who permanently discontinued treatment,[1],20 (40.0%) n (%)
same,"Abnormal ALT >3-5x ULN, Any Time Between Week 2 and Week 10, subjects","Cohort 4A, >3.0 mg/kg/wk",4 (40.0%)
same,"Abnormal ALT >3-5x ULN, Screening, subjects","Cohort 4A, >3.0 mg/kg/wk",0
same,"Abnormal ALT >5-10x ULN, Any Time Between Week 2 and Week 10, subjects","Cohort 4A, >3.0 mg/kg/wk",1 (10.0%)
same,"Abnormal ALT >5-10x ULN, Screening, subjects","Cohort 4A, >3.0 mg/kg/wk",0
same,"Abnormal ALT >10-20x ULN, Any Time Between Week 2 and Week 10, subjects","Cohort 4A, >3.0 mg/kg/wk",0
same,"Abnormal ALT >10-20x ULN, Screening, subjects","Cohort 4A, >3.0 mg/kg/wk",0
same,"Abnormal ALT >20x ULN, Any Time Between Week 2 and Week 10, subjects","Cohort 4A, >3.0 mg/kg/wk",1 (10.0%)
same,"Abnormal ALT >20x ULN, Screening, subjects","Cohort 4A, >3.0 mg/kg/wk",0
same,"Abnormal ALT >3-5x ULN, Any Time Between Week 2 and Week 10, subjects","Cohort 4A, ≦3.0 mg/kg/wk",6 (15.0%)
same,"Abnormal ALT >3-5x ULN, Screening, subjects","Cohort 4A, ≦3.0 mg/kg/wk",1 (2.8%)
same,"Abnormal ALT >5-10x ULN, Any Time Between Week 2 and Week 10, subjects","Cohort 4A, ≦3.0 mg/kg/wk",3 (7.5%)
same,"Abnormal ALT >5-10x ULN, Screening, subjects","Cohort 4A, ≦3.0 mg/kg/wk",1 (2.8%)
same,"Abnormal ALT >10-20x ULN, Any Time Between Week 2 and Week 10, subjects","Cohort 4A, ≦3.0 mg/kg/wk",1 (2.5%)
same,"Abnormal ALT >10-20x ULN, Screening, subjects","Cohort 4A, ≦3.0 mg/kg/wk",1 (2.8%)
same,"Abnormal ALT >20x ULN, Any Time Between Week 2 and Week 10, subjects","Cohort 4A, ≦3.0 mg/kg/wk",0
same,"Abnormal ALT >20x ULN, Screening, subjects","Cohort 4A, ≦3.0 mg/kg/wk",0
same,"Grade of hepatobiliary AE cholecystitis, subject 4058",Cohort 4a,3
same,"Grade of hepatobiliary AE hyperbilirubinemia, subject 4080",Cohort 4a,1
same,"Grade of hepatobiliary AE hyperbilirubinemia, subject 4090",Cohort 4a,2
same,"Grade of hepatobiliary AE worsening hyperbilirubinemia, subject 4109",Cohort 4a,1
same,"Outcome of hepatobiliary AE cholecystitis, subject 4058",Cohort 4a,recovered/resolved
